Measurements as given in patent US5883097A, “Soluble azole antifungal salt” (Schering Corporation, priority 1998, dated 1999).
Counter-ions that a name gives are not always drawn.

What was measured:
[1] = Solubility in water; assay type: physicochemical
Procedure: (§1) Only 1-2 mg of the hydrochloride salt dissolves in 1 mL of water, and unacceptably large volumes of water would be required for delivery of an effective dose. Furthermore, only in an aqueous hydrochloric acid solution at the physiologically unacceptable pH of 1-1.5 does enough of the hydrochloride acid addition salt of the compound of formula I dissolve to provide a suitably concentrated solution useful for intravenous use.

[2] = Solubility in aqueous lactic acid solution / pharmaceutically acceptable carriers; assay type: physicochemical
[3] = In vivo conversion into the alcohol of formula II
[4] = Solubility in aqueous hydrochloric acid solution; assay type: physicochemical; conditions: only in an aqueous hydrochloric acid solution; physiologically unacceptable pH
Procedure: as §1

[5] = Serum levels following oral dosing in monkeys; conditions: methyl cellulose formulation
[6] = Serum half life and tissue distribution following O.D. dosing
[7] = tested on: cytochrome P-450 liver drug metabolizing enzymes; experiment: Induction of cytochrome P-450 liver drug metabolizing enzymes, in vivo rat model; conditions: oral administration
[8] = Serum levels following oral dosing in mice; conditions: methyl cellulose formulation
[9] = Serum levels following oral dosing in dogs; conditions: methyl cellulose formulation
[10] = Serum levels following oral dosing in rats; conditions: methyl cellulose formulation
[11] = tested on: Aspergillus; conditions: SDB, geometric mean MIC and MFC

In the case of `CCC(C(C)OC(=O)CN)n1ncn(-c2ccc(N3CCN(c4ccc(OCC5COC(Cn6cncn6)(c6ccc(F)cc6F)C5)cc4)CC3)cc2)c1=O` (single isomer, unassigned; (-)), the “solubility in water” value ([1]; listed as lactic acid addition salt) is reported as “water soluble”, the “solubility in pharmaceutically acceptable carriers, especially aqueous lactic acid solutions” value ([2]; aqueous lactic acid solutions) is reported as “surprisingly soluble” and the “solubility in aqueous lactic acid solution at physiologically acceptable pH” value ([2]; pH of at least about 3 to 3.5) is reported as “soluble”. The “in vivo conversion into the corresponding alcohol of formula II” value [3] was “readily convertible in vivo”.
For `CCC(C(C)OC(=O)CN)n1ncn(-c2ccc(N3CCN(c4ccc(OCC5COC(Cn6cncn6)(c6ccc(F)cc6F)C5)cc4)CC3)cc2)c1=O` (single isomer, unassigned; (-)) [Hydrochloride], the “solubility in water” value ([1]; Hydrochloride) was “sparingly soluble”, the solubility ([1]; read-out: amount of salt dissolving in 1 mL of water) was 1000 to 2000 µg/mL and the “pH of aqueous hydrochloric acid at which enough salt dissolves to provide a suitably concentrated solution for intravenous use” value [4] was 1-1.5.
For `CCC(C(C)O)n1ncn(-c2ccc(N3CCN(c4ccc(OCC5COC(Cn6cncn6)(c6ccc(F)cc6F)C5)cc4)CC3)cc2)c1=O` [compound of formula II, -(2 R-cis)-4-[4-[4-[4-[[-5-(2,4-Difluorophenyl)-tetrahydro-5-(1 H-1,2,4-triazol-1-ylmethyl)furan-3-yl]methoxy]phenyl]-1-piperazinyl]phenyl]-2-4-dihydro-2-[(1 S)-ethyl-2(S)-hydroxypropyl]-3 H-1,2,4-triazol-3-one], the “serum levels compared to azoles of similar structure, monkeys” value [5] was “consistently higher serum levels”, the serum half lives [6] was “very long serum half lives” and the tissue distribution [6] was “good tissue distribution”. The “induction of cytochrome P-450 liver drug metabolizing enzymes” value [7] was “not an inducer”, the “serum levels compared to azoles of similar structure, mice” value [8] was “consistently higher serum levels” and the “serum levels compared to azoles of similar structure, dogs” value [9] was “consistently higher serum levels”. For the same compound, the “serum levels compared to azoles of similar structure, rats” value [10] was “consistently higher serum levels” and the “in vitro antifungal activity against 37 species of Aspergillus compared to fluconazole” value [11] was “superior antifungal in vitro activity”.
